Tests used:
PIM1 [1] = target: T1, PIM1 (Homo sapiens, UniProt P11309); assay: KinomeScan active site-directed competition binding at […]; […] catalytic inhibition at […] (n = […])
HIPK1 = HIPK1 (Homo sapiens, UniProt Q86Z02); assay: biochemical; set-up: Reaction Biology HotSpot radiometric 33P-ATP catalytic assay at Km ATP; percent inhibition versus DMSO, mean n=2; conditions: Km ATP
Source text: (§1) Unreacted phosphate is removed via washing the filters.

HASPIN = target: T2, HASPIN (Homo sapiens, UniProt Q8TF76); assay: biochemical; set-up: Reaction Biology HotSpot radiometric 33P-ATP catalytic assay at Km ATP; percent inhibition versus DMSO, mean n=2; conditions: Km ATP
T2 sequence (Q8TF76 1-798): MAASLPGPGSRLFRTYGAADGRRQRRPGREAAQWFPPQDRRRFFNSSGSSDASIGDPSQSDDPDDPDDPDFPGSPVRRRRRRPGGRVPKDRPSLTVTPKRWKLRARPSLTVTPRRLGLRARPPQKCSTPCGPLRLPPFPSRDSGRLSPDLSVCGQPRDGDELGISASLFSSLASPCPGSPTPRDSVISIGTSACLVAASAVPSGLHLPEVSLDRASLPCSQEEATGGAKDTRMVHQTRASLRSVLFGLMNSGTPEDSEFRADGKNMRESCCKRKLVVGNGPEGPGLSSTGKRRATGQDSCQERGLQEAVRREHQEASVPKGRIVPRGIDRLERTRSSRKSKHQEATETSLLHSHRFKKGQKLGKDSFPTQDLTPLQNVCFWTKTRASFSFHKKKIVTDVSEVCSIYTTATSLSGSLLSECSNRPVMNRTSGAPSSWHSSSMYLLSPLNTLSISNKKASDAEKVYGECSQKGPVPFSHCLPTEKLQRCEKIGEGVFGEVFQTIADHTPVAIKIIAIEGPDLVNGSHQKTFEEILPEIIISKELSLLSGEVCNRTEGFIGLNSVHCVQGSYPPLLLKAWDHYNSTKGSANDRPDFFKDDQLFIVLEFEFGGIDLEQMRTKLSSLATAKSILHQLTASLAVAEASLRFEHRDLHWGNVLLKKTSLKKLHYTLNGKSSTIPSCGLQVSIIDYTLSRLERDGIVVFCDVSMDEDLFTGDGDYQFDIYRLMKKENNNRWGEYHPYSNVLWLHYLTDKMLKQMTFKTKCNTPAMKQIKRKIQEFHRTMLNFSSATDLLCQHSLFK
Source text: as §1

Aurora B = target: T3, Aurora B (Homo sapiens, UniProt Q96GD4); assay: biochemical; conditions: read-out: Niraparib
T3 construct: gene AURKB

MYLK4 = target: T4, MYLK4 (Homo sapiens, UniProt Q86YV6); assay: biochemical; set-up: Reaction Biology HotSpot radiometric 33P-ATP catalytic assay at Km ATP; percent inhibition versus DMSO, mean n=2; conditions: Km ATP
T4 sequence (Q86YV6 1-388): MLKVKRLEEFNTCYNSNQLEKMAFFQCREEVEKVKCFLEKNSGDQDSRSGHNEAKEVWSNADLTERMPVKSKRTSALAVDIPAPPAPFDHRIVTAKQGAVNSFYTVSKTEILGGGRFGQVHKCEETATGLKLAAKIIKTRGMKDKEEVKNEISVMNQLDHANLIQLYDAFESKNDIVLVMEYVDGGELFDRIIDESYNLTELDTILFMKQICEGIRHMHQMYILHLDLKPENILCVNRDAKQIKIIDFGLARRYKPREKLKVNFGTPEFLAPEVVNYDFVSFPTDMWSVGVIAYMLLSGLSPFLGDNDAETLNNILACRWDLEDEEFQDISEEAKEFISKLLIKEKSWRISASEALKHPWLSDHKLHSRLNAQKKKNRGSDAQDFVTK
Source text: as §1

LATS2 = target: T5, LATS2 (Homo sapiens, UniProt Q9NRM7); assay: biochemical; set-up: Reaction Biology HotSpot radiometric 33P-ATP catalytic assay at Km ATP; percent inhibition versus DMSO, mean n=2; conditions: Km ATP
T5 sequence (Q9NRM7 1-1088): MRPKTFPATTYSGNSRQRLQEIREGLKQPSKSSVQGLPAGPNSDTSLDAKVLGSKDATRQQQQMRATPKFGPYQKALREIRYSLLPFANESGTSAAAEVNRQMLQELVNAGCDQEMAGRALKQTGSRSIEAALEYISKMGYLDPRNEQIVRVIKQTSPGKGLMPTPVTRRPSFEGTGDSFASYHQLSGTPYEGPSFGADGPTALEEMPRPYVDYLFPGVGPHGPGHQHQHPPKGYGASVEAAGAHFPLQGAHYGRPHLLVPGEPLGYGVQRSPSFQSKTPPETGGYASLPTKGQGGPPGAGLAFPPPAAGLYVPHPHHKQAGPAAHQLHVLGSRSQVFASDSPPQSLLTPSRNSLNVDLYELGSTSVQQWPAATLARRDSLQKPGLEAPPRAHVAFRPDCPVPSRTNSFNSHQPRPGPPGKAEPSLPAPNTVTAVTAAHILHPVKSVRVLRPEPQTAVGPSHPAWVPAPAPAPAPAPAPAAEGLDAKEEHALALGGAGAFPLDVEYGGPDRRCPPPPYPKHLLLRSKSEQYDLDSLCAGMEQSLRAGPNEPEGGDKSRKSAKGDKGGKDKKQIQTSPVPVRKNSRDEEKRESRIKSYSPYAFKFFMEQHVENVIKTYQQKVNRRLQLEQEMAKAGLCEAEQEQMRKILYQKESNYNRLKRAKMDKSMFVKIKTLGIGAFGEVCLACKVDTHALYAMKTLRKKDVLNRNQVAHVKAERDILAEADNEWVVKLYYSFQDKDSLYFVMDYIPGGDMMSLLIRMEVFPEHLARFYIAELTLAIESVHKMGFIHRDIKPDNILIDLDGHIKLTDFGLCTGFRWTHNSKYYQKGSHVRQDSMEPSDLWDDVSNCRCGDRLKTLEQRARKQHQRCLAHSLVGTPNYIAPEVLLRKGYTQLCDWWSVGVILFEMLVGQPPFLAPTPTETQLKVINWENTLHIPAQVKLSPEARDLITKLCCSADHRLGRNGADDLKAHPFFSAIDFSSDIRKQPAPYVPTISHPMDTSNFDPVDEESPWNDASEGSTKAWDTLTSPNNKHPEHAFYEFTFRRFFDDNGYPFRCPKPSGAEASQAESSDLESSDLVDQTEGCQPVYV
Source text: as §1

PIM3 = PIM3 (Homo sapiens, UniProt Q86V86); assay: biochemical; set-up: Reaction Biology HotSpot radiometric 33P-ATP catalytic assay at Km ATP; percent inhibition versus DMSO, mean n=2; conditions: Km ATP
Source text: as §1

PIM1 [2] = target: T1, PIM1; assay: biochemical; set-up: Reaction Biology HotSpot radiometric 33P-ATP catalytic assay at Km ATP; percent inhibition versus DMSO, mean n=2; conditions: Km ATP
Source text: as §1

SMILES: CNCc1ccc(-c2[nH]c3cc(F)cc4c3c2CCNC4=O)cc1 [Rucaparib]
- KinomeScan active site-directed competition binding at 10 μM; 27% catalytic inhi (PIM1 [1]): recover most of the previously known off-targets of rucaparib, including the most potent known interactions with PIM1 and DYRK1A
- inhibition at 1 µM (HIPK1): -16%
- inhibition at 1 µM (HASPIN): -6%

SMILES: NC(=O)c1cccc2cn(-c3ccc([C@@H]4CCCNC4)cc3)nc12 [Niraparib]
- inhibition at 1 µM (Aurora B): 34%
- inhibition at 1 µM (MYLK4): 19%
- inhibition at 1 µM (LATS2): 17%
- inhibition at 1 µM (PIM3): 15%
- inhibition at 1 µM (HASPIN): 10%
- inhibition at 1 µM (PIM1 [2]): 22%

Source: paper PMC7026418, “The kinase polypharmacology landscape of clinical PARP inhibitors” (Scientific Reports, 2020)
